Values quoted from earlier work in patent US4127523A, “Novel undecapeptides, intermediates therefor, and compositions and methods employing said undecapeptides” (priority 1977, dated 1978).

Legend:
[1] = injected directly into the brain of the rat; Belluzzi et al.
[2] = literature
[3] = test system: partially purified brain opiate receptor sites; conditions: literature, Bradbury et al.

H-Tyr-Gly-Gly-Phe-Met-OH [methionine enkephalin]
analgesic activity [1]: only weak analgesic agent of short duration
activity in bioassays for opiate activity [2]: very active
binding to partially purified brain opiate receptor sites [3]: binds stereo-specifically
